# In US20260217701A1, “SELECTIVE BET INHIBITORS AND USES THEREOF” (Tay Therapeutics Limited, priority 2022, published 2026):
# “And” between values parts separate entries of the source, which are not always exact repeats. Equal entries are not always repeated. Where two headings read alike, the source gives them in different places.
# Assay: CIA study: pharmacokinetics / plasma concentration after oral administration
# Assay type: in vivo, Lewis rats
# Settings: for concentration at 2 h / concentration at 4 h / concentration at 6 h / concentration at 8 h / concentration at 0.25 h / concentration at 0.5 h / concentration at 1 h / concentration at 24 h / Plasma Concentration: oral 3 mg/kg
structure (smiles),measurement,setting,value
"Cn1cc(-c2ccccc2)c(-c2cn(C)c(=O)c3[nH]c(-c4cnn(C(F)(F)F)c4)cc23)cc1=O [Compound A, 6-methyl-4-(1-methyl-2-oxo-5-phenyl-1,2-dihydropyridin-4-yl)-2-(1-(trifluoromethyl)-1H-pyrazol-4-yl)-1,6-dihydro-7H-pyrrolo[2,3-c]pyridin-7-one]",MRT inf,"Lewis, rat, plasma, po, 3 mg/kg, CIA-induced animals, day 21, 3 mg/kg, individual test subjects, read-out: MRTInf—obs",10.1 h
same,half-life,"Lewis, rat, plasma, po, 3 mg/kg, CIA-induced animals, day 21, 3 mg/kg, individual test subjects, read-out: T1/2 (converted)",6.79 h
same,Tmax,"Lewis, rat, plasma, po, 3 mg/kg, CIA-induced animals, day 21, 3 mg/kg, individual test subjects, read-out: Tmax",4 h
same,concentration at 2 h,"Lewis, rat, plasma, po, 3 mg/kg, day 0, 2 h, individual test subjects, read-out: Plasma concentration",109 ng/mL
same,concentration at 4 h,"Lewis, rat, plasma, po, 3 mg/kg, day 0, 4 h, individual test subjects, read-out: Plasma concentration",112 ng/mL
same,concentration at 6 h,"Lewis, rat, plasma, po, 3 mg/kg, day 0, 6 h, individual test subjects, read-out: Plasma concentration",123 ng/mL
same,concentration at 8 h,"Lewis, rat, plasma, po, 3 mg/kg, day 0, 8 h, individual test subjects, read-out: Plasma concentration",119 ng/mL
same,concentration at 0.25 h,"Lewis, rat, plasma, po, 3 mg/kg, day 0, time 0.25, read-out: Mean Concentration (average plasma concentration)",16.8 ng/mL
same,concentration at 0.5 h,"Lewis, rat, plasma, po, 3 mg/kg, day 0, time 0.5, read-out: Mean Concentration (average plasma concentration)",28.1 ng/mL
same,concentration at 1 h,"Lewis, rat, plasma, po, 3 mg/kg, day 0, time 1, read-out: Mean Concentration (average plasma concentration)",51.1 ng/mL
same,concentration at 2 h,"Lewis, rat, plasma, po, 3 mg/kg, day 0, time 2, read-out: Mean Concentration (average plasma concentration)",79 ng/mL
same,concentration at 4 h,"Lewis, rat, plasma, po, 3 mg/kg, day 0, time 4, read-out: Mean Concentration (average plasma concentration)",90 ng/mL
same,concentration at 6 h,"Lewis, rat, plasma, po, 3 mg/kg, day 0, time 6, read-out: Mean Concentration (average plasma concentration)",94 ng/mL
same,concentration at 8 h,"Lewis, rat, plasma, po, 3 mg/kg, day 0, time 8, read-out: Mean Concentration (average plasma concentration)",90 ng/mL
same,concentration at 24 h,"Lewis, rat, plasma, po, 3 mg/kg, day 0, time 24",22.3 ng/mL
same,concentration at 0.25 h,"Lewis, rat, plasma, po, 3 mg/kg, day 21, 0.25 h, individual test subjects, read-out: Plasma concentration",18.4 ng/mL
same,concentration at 0.5 h,"Lewis, rat, plasma, po, 3 mg/kg, day 21, 0.5 h, individual test subjects, read-out: Plasma concentration",22.2 ng/mL
same,concentration at 1 h,"Lewis, rat, plasma, po, 3 mg/kg, day 21, 1 h, individual test subjects, read-out: Plasma concentration",33.6 ng/mL
same,concentration at 2 h,"Lewis, rat, plasma, po, 3 mg/kg, day 21, 2 h, individual test subjects, read-out: Plasma concentration",33 ng/mL
same,concentration at 4 h,"Lewis, rat, plasma, po, 3 mg/kg, day 21, 4 h, individual test subjects, read-out: Plasma concentration",48.3 ng/mL
same,concentration at 6 h,"Lewis, rat, plasma, po, 3 mg/kg, day 21, 6 h, individual test subjects, read-out: Plasma concentration",44.2 ng/mL
same,concentration at 8 h,"Lewis, rat, plasma, po, 3 mg/kg, day 21, 8 h, individual test subjects, read-out: Plasma concentration",30.9 ng/mL
same,concentration at 0.25 h,"Lewis, rat, plasma, po, 3 mg/kg, day 21, time 0.25, read-out: Mean Concentration (average plasma concentration)",15.4 ng/mL
same,concentration at 0.5 h,"Lewis, rat, plasma, po, 3 mg/kg, day 21, time 0.5, read-out: Mean Concentration (average plasma concentration)",21 ng/mL
same,concentration at 1 h,"Lewis, rat, plasma, po, 3 mg/kg, day 21, time 1, read-out: Mean Concentration (average plasma concentration)",28.7 ng/mL
same,concentration at 2 h,"Lewis, rat, plasma, po, 3 mg/kg, day 21, time 2, read-out: Mean Concentration (average plasma concentration)",37.5 ng/mL
same,concentration at 4 h,"Lewis, rat, plasma, po, 3 mg/kg, day 21, time 4, read-out: Mean Concentration (average plasma concentration)",45.8 ng/mL
same,concentration at 6 h,"Lewis, rat, plasma, po, 3 mg/kg, day 21, time 6, read-out: Mean Concentration (average plasma concentration)",47 ng/mL
same,concentration at 8 h,"Lewis, rat, plasma, po, 3 mg/kg, day 21, time 8, read-out: Mean Concentration (average plasma concentration)",40.6 ng/mL
same,concentration at 24 h,"Lewis, rat, plasma, po, 3 mg/kg, day 21, time 24",12.2 ng/mL
same,AUC,"Lewis, rat, plasma, po, CIA-induced animals, day 21, 3 mg/kg, average, read-out: AUClnf (Mean)",904 ng·h/mL
same,Plasma Concentration,"day 0, 0.25 h, individual test subjects, 3 mg/kg",28.7 ng/mL and 12.9 ng/mL and 8.85 ng/mL
same,Plasma Concentration,"day 0, 0.5 h, individual test subjects, 3 mg/kg",39.3 ng/mL and 25.4 ng/mL and 19.5 ng/mL
same,Plasma Concentration,"day 0, 1 h, individual test subjects, 3 mg/kg",78.4 ng/mL and 40.1 ng/mL and 34.7 ng/mL
same,Plasma Concentration,"day 0, 2 h, individual test subjects, 3 mg/kg",66.0 ng/mL and 62.7 ng/mL
same,Plasma Concentration,"day 0, 4 h, individual test subjects, 3 mg/kg",77.9 ng/mL and 80.7 ng/mL
same,Plasma Concentration,"day 0, 6 h, individual test subjects, 3 mg/kg",77.1 ng/mL and 82.6 ng/mL
same,Plasma Concentration,"day 0, 8 h, individual test subjects, 3 mg/kg",76.1 ng/mL and 74.4 ng/mL
same,Plasma Concentration,"day 0, 24 h, individual test subjects, 3 mg/kg",35.6 ng/mL and 14.1 ng/mL and 17.3 ng/mL
same,Plasma Concentration,"day 21, 0.25 h, individual test subjects, 3 mg/kg",14.7 ng/mL and 13.1 ng/mL
same,Plasma Concentration,"day 21, 0.5 h, individual test subjects, 3 mg/kg",20.9 ng/mL and 19.8 ng/mL
same,Plasma Concentration,"day 21, 1 h, individual test subjects, 3 mg/kg",27.0 ng/mL and 25.5 ng/mL
same,Plasma Concentration,"day 21, 2 h, individual test subjects, 3 mg/kg",45.6 ng/mL and 33.8 ng/mL
same,Plasma Concentration,"day 21, 4 h, individual test subjects, 3 mg/kg",44.3 ng/mL and 44.7 ng/mL
same,Plasma Concentration,"day 21, 6 h, individual test subjects, 3 mg/kg",51.2 ng/mL and 45.7 ng/mL
same,Plasma Concentration,"day 21, 8 h, individual test subjects, 3 mg/kg",45.6 ng/mL and 45.3 ng/mL
same,Plasma Concentration,"day 21, 24 h, individual test subjects, 3 mg/kg",6.60 ng/mL and 15.6 ng/mL and 14.4 ng/mL
